Patent US6156316A, “Oncogene fusion protein peptide vaccines” (Sloan-Kettering Institute for Cancer Research, priority 1995, dated 2000)
Where two headings read alike, the source gives them in different places. No end group written: not given here.

Experiments:
HLA A2.1 = biological target: T1, HLA A2.1 (Homo sapiens, UniProt P04439, D140Y/D185E/D98H/E176V/E277Q/G131W/G231S/I119V/I121R/I166T/I218V/L300P/L318F/N151K/N90K/P208A/P217A/Q86G/Q94H/R138H/R169H/T345S); assay: biochemical; assay type: binding
T1 construct: endogenous in cells
Source text: (§1) Purification of HLA class I molecules.

HLA A3.2 = biological target: T2, HLA A3.2 (Homo sapiens, UniProt P04439); assay: biochemical; assay type: binding
T2 construct: endogenous in cells
T2 sequence (P61769 21-119): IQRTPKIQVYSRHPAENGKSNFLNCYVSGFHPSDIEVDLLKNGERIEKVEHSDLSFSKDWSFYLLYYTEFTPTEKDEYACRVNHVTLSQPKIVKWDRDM
T2 sequence (P04439 25-365): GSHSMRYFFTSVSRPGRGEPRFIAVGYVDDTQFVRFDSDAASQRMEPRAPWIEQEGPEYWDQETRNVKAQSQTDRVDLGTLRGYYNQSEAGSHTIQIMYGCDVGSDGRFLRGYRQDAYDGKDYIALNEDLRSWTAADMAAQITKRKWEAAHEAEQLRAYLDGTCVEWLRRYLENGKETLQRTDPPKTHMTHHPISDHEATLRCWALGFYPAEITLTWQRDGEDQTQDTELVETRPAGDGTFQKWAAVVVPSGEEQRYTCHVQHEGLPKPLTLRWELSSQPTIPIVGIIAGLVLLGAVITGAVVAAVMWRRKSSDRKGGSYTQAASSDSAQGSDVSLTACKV
Source text: as §1

HLA B7 = HLA B7 (Homo sapiens, UniProt P01889); assay: biochemical
Sequence of HLA B7 (P01889 25-362): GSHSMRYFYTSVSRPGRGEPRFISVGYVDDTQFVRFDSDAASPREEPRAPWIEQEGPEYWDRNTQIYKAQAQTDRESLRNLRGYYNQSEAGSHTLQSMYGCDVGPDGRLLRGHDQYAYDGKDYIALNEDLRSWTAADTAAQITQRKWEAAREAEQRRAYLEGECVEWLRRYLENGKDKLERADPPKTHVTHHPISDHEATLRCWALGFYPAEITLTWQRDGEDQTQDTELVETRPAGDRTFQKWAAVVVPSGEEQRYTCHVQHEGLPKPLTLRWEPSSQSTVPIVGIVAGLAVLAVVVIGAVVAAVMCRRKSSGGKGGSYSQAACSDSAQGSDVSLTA
Sequence of HLA B7 (P61769 21-119, further chain): as the sequence (P61769 21-119) above
Method: Standard peptides known to bind efficiently to HLA A1, A2.1, A3.2, A11, A24, B7, B8, B27 were synthesized and ^125 I-labeled by Cytel, San Diego, Calif. as described (14,15).
MHC binding assay. Peptide binding to purified MHC class I molecules was measured as described (14,15). Briefly, the assay is based on the inhibition of binding of the radiolabeled standard peptide described above to detergent solubilized purified MHC molecules. HLA concentrations (about 10 nM) yielding 15% bound standard peptide were used in the inhibition assay. A serial dilution of CML or APL breakpoint spanning peptide (30 uM to 1 nM) were incubated together with 5 Mn of the radiolabeled standard peptide and matched appropriate HLA molecule. The percent MHC-bound radioactivity was then determined by gel filtration, and the inhibition calculated.

FeLV subunit vaccine = conditions: cats; cited from earlier work
[1] = test system: HIV-1 recombinant vaccine; conditions: Rhesus monkeys; cited from earlier work
[2] = AFFINITY (nM) A3.2, Table 1, CML peptides, 50% inhibition of standard peptide binding
[3] = concentration for 50% inhibition, HLA A3.2, text b187

Row | Molecule | IC50 (HLA A2.1) [µM] | IC50 (HLA A3.2; [2]) [nM] | also measured
1 | CC[C@H](C)[C@H](NC(=O)[C@@H](NC(=O)[C@@H](N)CC(C)C)[C@@H](C)O)C(=O)N[C@@H](CC(N)=O)C(=O)N[C@@H](CCCCN)C(=O)N[C@@H](CCC(=O)O)C(=O)N[C@@H](CCC(=O)O)C(=O)N[C@@H](C)C(=O)N[C@@H](CC(C)C)C(=O)O [LTINKEEAL] | > 30 | – | –
2 | ATGFKQSSK | – | 300 | IC50 (HLA A3.2; [3]): 100 to 500 nM
3 | ATGFKQSSKAL [ATGFKQSSKAL] | > 30 | – | –
4 | CITQGKAI | > 50 | – | –
5 | DLSSCITQGKA | > 50 | – | –
6 | FKQSSKALQR | – | 545 | –
7 | GFKQSSKALQR | – | 810 | –
8 | HSATGFKQSSK | – | 400 | IC50 (HLA A3.2; [3]): 400 nM
9 | HVASGAGEAAI | > 50 | – | –
10 | IPLTINKEEAL [IPLTINKEEAL] | – | – | IC50 (HLA B7): > 30 µM
11 | KQSSKALQR | – | – | IC50 (HLA A3.2): 43 nM
12 | LTINKEEALQR | – | – | IC50 (HLA A3.2): > 30000 nM
13 | PLTINKEEA | > 30 | – | –
14 | PLTINKEEAL [PLTINKEEAL] | > 30 | – | –
15 | QS-21 | – | – | augmenting the immunogenicity of an FeLV subunit vaccine (FeLV subunit vaccine): highly effective; augmenting the immunogenicity of an HIV-1 recombinant vaccine [1]: highly effective
16 | QSSKALQR | – | – | IC50 (HLA A3.2): > 30000 nM
17 | SATGFKQSSK | – | 5450 | –
18 | TGFKQSSK | – | > 30000 | –
19 | TINKEEAL [TINKEEAL] | > 30 | – | –
20 | TINKEEALQR | – | > 30000 | –
21 | VASGAGEAAI | > 50 | – | –
